Molecules are shown by their SMILES.

Series [1] can be described thus: Metabolic stability in human liver microsomes. The format is in vitro ADME. To be noted: human liver microsomes 1 mg/mL protein, 1 μM compound, 37° C., NADPH-regenerating system; for half-life at 1 μM: 0-120 min, read-out: In vitro elimination half-life t1/2; for microsomal CLint at 1 μM: read-out: In vitro intrinsic clearance CLint-microsomes. The procedure:
Study design—Test compounds (ambroxol and deuterated analogs) were dissolved in dimethylsulfoxide (DMSO) to prepare 1 mM stock solutions. The compounds were added to preparations of human liver microsomes (200 μL per incubation at a 1 mg/mL protein concentration) such that the final compound concentration was 1 μM. The samples were incubated at 37° C. in the presence of a reduced nicotinamide adenine dinucleotide phosphate (NADPH)-regenerating system (NADP, 1 mM, pH 7.4; glucose-6-phosphate, 5 mM, pH 7.4; glucose-6-phosphate dehydrogenase, 1 unit/mL)). A positive control (midazolam, 1 μM, 0.1 mg/mL protein) was incubated concurrently to ensure the microsome preparation was performing as expected. Samples were obtained at t=0, 30, 60, and 120 min and quenched by addition of acetonitrile.
Quenched samples were analyzed by liquid chromatography coupled to tandem mass spectrometry detection (LC/MS-MS). The concentration of the test compounds at each time point were converted to percent remaining relative to the concentration of the compound at time t=0 (which serves as the 100% value). All data points were included in data processing. The rate constant of elimination (kel, min^−1) of each test compound was determined from the time course of disappearance of the parent compound based on fitting the experimental data to a single exponential decay formula (At=Aoe^−kelt, where At is the % remaining at time t, Ao is 100%, kel is the elimination rate constant, and t is time). The in vitro half-life (t1/2) was determined from kel based on the formula: t1/2=ln(2)/kel. The rate constant of elimination was also used to calculate the in vitro intrinsic clearance CLint-microsomes (μL/min/mg protein).
In general terms: Microsomes from liver hold many membrane-bound enzymes, among them those of drug oxidation.

The test system of another series is male BDF1 mice. Description: Lifespan study in mice fed compound in chow. To be noted: 50 mg/kg daily as chow supplement, vs control (FIG. 3). The format is in vivo, mouse.
In a further series the test system is mice. Description: Cognitive acuity test (novel place recognition) in mice at 7 months. The format is in vivo, mouse. From the text: This is a cognitive test to measure short-term working memory, involving recognition of a familiar object found in an unfamiliar place (see Magen et al., Eur J Neurosci 35:870-882, 2012; Magen and Chesselet, J Parkinson's Disease 1:217-227, 2011). A Discrimination Index (DI)=(tnovel−tfamiliar)/(tnovel+tfamiliar) was used to assess the time spent exploring near the object in a novel place (“tnovel”) vs. the total exploration time overall. Discrimination Index scores greater than zero are considered to indicate good place recognition memory.
Three groups of mice, with at least 13 mice in each group, are given a cognitive acuity test at 7 months. The three groups of mice are: “High Dose” Group (150 mg/kg/day of compound 2), “Low Dose” (50 mg/kg/day of compound 2) Group, and a Control Group (no compound 2).
The dosage results are substantially lower than doses previously observed to effectively promote GCase chaperoning activity in mice (e.g., Migdalska-Richards et al., Ann Neurol 80:766-775, 2016).

Protocol for male BDF1 mice: Group 1 represents control animals that were not administered ambroxol; and Group 2 represents animals administered 50 mg/kg (body weight) of ambroxol daily as a chow supplement, starting at 2 months of age.
Weaned male BDF1 mice raised from pups, housed 1-4 animals per cage and fed Teklad 7013 NIH-31 rodent chow and water ad libitum, at 2 months of age, are divided into two roughly equal groups of 22-25 animals. One group continues to be fed the Teklad chow as before (control); the other group is switched to Teklad chow formulated with compound 2 at 300 mg per kg of chow. This formulation was designed, based on the average ad libitum chow consumption of an adult male BDF1 mouse, to deliver 50 mg/kg/day (based on body mass) to each mouse in the treated group. Mice are maintained on this diet until they die naturally or until they reach 16 months of age, at which time the experiment ends. During the course of the experiment, all mice are periodically removed from their cages and handled in the course of subjecting them to various sensorimotor, cognitive, and/or behavioral tests.
Group 1 represents control animals that were not administered ambroxol; Group 2 represents animals administered 50 mg/kg of ambroxol daily as a chow supplement, starting at 2 months of age.

As to `[2H]C([2H])(N[C@H]1CC[C@H](O)CC1)c1cc(Br)cc(Br)c1N` [ZW-001], in series [1], the half-life at 1 μM worked out at 1.65 h and the microsomal CLint at 1 μM was found to be 7 µL/min/mg.
As for `Nc1c(Br)cc(Br)cc1CN[C@H]1CC[C@H](O)CC1` [ambroxol, trans-4-((2-amino-3,5-dibromobenzyl)amino)cyclohexanol], in series [1], the half-life at 1 μM turned out to be 1.01 h and the microsomal CLint at 1 μM worked out at 11.4 µL/min/mg. Moreover, in the series with male BDF1 mice (starting at 2 months of age), the Lifespan entry is reported as “able to increase lifespan”. Further, in the series on male BDF1 mice, the “Healthspan (health of surviving animals when sacrificed)” value is given as “healthspan was extended”. In the series with mice (50 mg/kg/day), the “Cognitive acuity, Low Dose Group” value is “results in between the Control Group and the “High Dose” Group”. In addition, in the series with mice (150 mg/kg/day), the “Cognitive acuity, High Dose Group” value was “best cognitive acuity results”. Also, the Cognitive acuity result in the series with mice (High Dose and Low Dose vs Control (FIG. 4)) is on record as “dose-related improvement”.

These data come from patent publication US20250235413A1, “MODIFIED FORMS OF AMBROXOL FOR THERAPEUTIC USE” (Zywie, LLC, priority 2021, published 2025).
